In patent US9650395B2, “Antibacterial compounds and methods for use” (PTC Therapeutics, Inc., priority 2011, dated 2017):
Converted amounts (≈) assume the structure as drawn. Like-named read-outs stand apart in the source and are kept apart here.

Legend:
[1] = tested on: control Gram-negative E. coli 25922 strain; test: Antibacterial activity, microbroth dilution MIC, E. coli 25922; type: cell-based, Escherichia coli; details: Escherichia coli; E. coli 25922, microbroth dilution; read-out: MIC, 25922
[2] = tested on: Pseudomonas aeruginosa (P. aeruginosa) 27853; test: Antibacterial activity, MIC, P. aeruginosa 27853; type: cell-based; details: P. aeruginosa 27853; for MIC: Pseudomonas aeruginosa, read-out: MIC 27853
Source text: (§1) The antibacterial activity from a microbroth dilution method may be presented as the minimum inhibitory concentration (MIC in […]). The MIC value is the lowest concentration of a drug which prevents macroscopically visible bacterial growth under test conditions.
Antibacterial activity of test compounds against the Gram-negative bacterium Pseudomonas aeruginosa (P. aeruginosa) 27853 is shown in Table 5.

[3] = tested on: Gram-positive Staphylococcus aureus (S. aureus) 29213; test: Antibacterial activity, microbroth dilution MIC, S. aureus 29213; type: cell-based; details: Staphylococcus aureus; S. aureus 29213, microbroth dilution; read-out: MIC, 29213
[4] = tested on: Acinetobacter baumannii (A. baumannii) BAA747; test: Antibacterial activity, MIC, A. baumannii BAA747; type: cell-based; details: Acinetobacter baumannii; A. baumannii BAA747; read-out: MIC BAA747
[5] = tested on: E. coli ELZ4251 (MDR clinical isolate); test: Antibacterial activity, MIC, MDR E. coli ELZ4251; type: cell-based, Escherichia coli; details: E. coli ELZ4251, MDR clinical isolate
[6] = tested on: super sensitive Gram-negative Escherichia coli (E. coli) BAS849; test: Antibacterial activity, microbroth dilution MIC, E. coli BAS849; type: cell-based; details: Escherichia coli, read-out: MIC, BAS849
[7] = tested on: quinolone resistant E. coli LZ3111; test: Antibacterial activity, MIC, quinolone resistant E. coli LZ3111; type: cell-based, Escherichia coli; details: Escherichia coli, read-out: MIC, LZ3111
Source text: as §1
Mutations in these regions are known to confer a high level resistance to the quinolone class of antibiotics.

[8] = tested on: Klebsiella pneumoniae (K. pneumoniae) 35657; test: Antibacterial activity, MIC, K. pneumoniae 35657; type: cell-based; details: for MIC: Klebsiella pneumoniae
[9] = tested on: E. coli ELZ4000 (MDR clinical isolate); test: Antibacterial activity, MIC, MDR E. coli ELZ4000; type: cell-based, Escherichia coli; details: Escherichia coli; E. coli ELZ4000, MDR clinical isolate; read-out: MIC ELZ4000
[10] = tested on: Haemophilus influenzae (H. influenzae) 49247; test: Antibacterial activity, MIC, H. influenzae 49247; type: cell-based; details: Haemophilus influenzae; H. influenzae 49247; read-out: MIC 49247
Summary of the method: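 A microbroth dilution method gave the minimum inhibitory concentration for each compound against H. influenzae 49247, a Gram-negative bacterium. MIC means the smallest concentration of drug at which no macroscopically visible bacterial growth appears under the conditions of the test.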

[11] = tested on: Moraxella catarrhalis (M. catarrhalis) 25238; test: Antibacterial activity, MIC, M. catarrhalis 25238; type: cell-based; details: Moraxella catarrhalis, M. catarrhalis 25238; read-out: MIC 25238
[12] = tested on: Neisseria meningitidis (N. meningitidis) 13090; test: Antibacterial activity, MIC, N. meningitidis 13090; type: cell-based; details: Neisseria meningitidis; N. meningitidis 13090; read-out: MIC 13090
[13] = tested on: resistant A. baumannii MXX2240 (MDR clinical isolate); test: Antibacterial activity, MIC, resistant A. baumannii MXX2240; type: cell-based, Acinetobacter baumannii; details: resistant A. baumannii MMX2240, MDR clinical isolate
[14] = E. coli BAS849, microbroth dilution

Structure (SMILES): CCc1c(-c2ccc(N3C[C@H]4CCCC[C@@]4(CN(C)C)C3)cc2)[nH]c(=O)c(C(=O)O)c1O.Cl [Cpd 266, 6-(4-{(3aR,7aS)-3a-[(dimethylamino)methyl]octahydro-2H-isoindol-2-yl}phenyl)-5-ethyl-4-hydroxy-2-oxo-1,2-dihydropyridine-3-carboxylic acid hydrochloride]
- MIC [1]: 12.5 to 150 µg/mL
- MIC [2]: 12.5 to 150 µg/mL
- MIC [3]: 3.5 to 12.5 µg/mL
- MIC [4]: 12.5 to 150 µg/mL
- MIC ([5]; Escherichia coli, read-out: MIC ELZ4251): 12.5 to 150 µg/mL
- MIC [6, 14]: 1 to 3.5 µg/mL
- MIC [7]: 3.5 to 12.5 µg/mL
- MIC [8]: 12.5 to 150 µg/mL
- MIC [9]: 12.5 to 150 µg/mL

Structure (SMILES): CCc1c(-c2ccc(N3C[C@H]4CC[C@H](NC)[C@H]4C3)cc2)[nH]c(=O)c(C(=O)O)c1O.Cl [Cpd 267, 5-ethyl-4-hydroxy-6-{4-[(3aR,4S,6aS)-4-(methylamino)hexahydrocyclopenta[c]pyrrol-2(1H)-yl]phenyl}-2-oxo-1,2-dihydropyridine-3-carboxylic acid hydrochloride]
- MIC [1]: 3.5 to 12.5 µg/mL
- MIC [2]: 12.5 to 150 µg/mL
- MIC [3]: 12.5 to 150 µg/mL
- MIC [4]: 12.5 to 150 µg/mL
- MIC [6, 14]: 1 to 3.5 µg/mL
- MIC [7]: 3.5 to 12.5 µg/mL
- MIC [8]: 3.5 to 12.5 µg/mL

Structure (SMILES): CCc1c(-c2ccc(N3CC4CCCCC4(C#N)C3)cc2)[nH]c(=O)c(C(=O)O)c1O.O=C(O)C(F)(F)F (stereo not drawn) [Cpd 276, 6-[4-(3a-cyanooctahydro-2H-isoindol-2-yl)phenyl]-5-ethyl-4-hydroxy-2-oxo-1,2-dihydropyridine-3-carboxylic acid trifluoroacetate]
- MIC [1]: 12.5 to 150 µg/mL
- MIC [2]: 12.5 to 150 µg/mL
- MIC [3]: 1 to 3.5 µg/mL
- MIC [4]: 12.5 to 150 µg/mL
- MIC [6]: < 1 µg/mL
- MIC [7]: 12.5 to 150 µg/mL
- MIC [8]: 12.5 to 150 µg/mL

Structure (SMILES): CCc1c(-c2ccc(N3C[C@@H]4[C@@H](N)[C@@H]4C3)cc2)[nH]c(=O)c(C(=O)O)c1O [Cpd 285, 6-{4-[(1R,5S,6s)-6-amino-3-azabicyclo[3.1.0]hex-3-yl]phenyl}-5-ethyl-4-hydroxy-2-oxo-1,2-dihydropyridine-3-carboxylic acid]
- MIC [10]: < 1 µg/mL
- MIC [11]: 1 to 3.5 µg/mL (≈ 2.81 to 9.85 µM)
- MIC 27853 [2]: ** (an MIC value between >3.5 μg/mL and ≦12.5 μg/mL is indicated by two stars (**))
- MIC ELZ4251 [5]: ** (an MIC value between >3.5 μg/mL and ≦12.5 μg/mL is indicated by two stars (**))
- MIC 35657 [8]: *** (an MIC value between >1.0 μg/mL and ≦3.5 μg/mL is indicated by three stars (***))
- MIC [12]: < 1 µg/mL
- MIC [9]: 12.5 to 150 µg/mL (≈ 35.2 to 422 µM)
- MIC MMX2240 [13]: * (an MIC value between >12.5 μg/mL and ≦150 μg/mL is indicated by a single star (*))

Structure (SMILES): CCc1c(-c2ccc(N3CC[C@@H](O)C3)cc2F)[nH]c(=O)c(C(=O)O)c1O [Cpd 292, 5-ethyl-6-{2-fluoro-4-[(3R)-3-hydroxypyrrolidin-1-yl]phenyl}-4-hydroxy-2-oxo-1,2-dihydropyridine-3-carboxylic acid]
- MIC [1]: 1 to 3.5 µg/mL (≈ 2.76 to 9.66 µM)
- MIC [2]: 3.5 to 12.5 µg/mL (≈ 9.66 to 34.5 µM)
- MIC [3]: 12.5 to 150 µg/mL (≈ 34.5 to 414 µM)
- MIC [4]: 3.5 to 12.5 µg/mL (≈ 9.66 to 34.5 µM)
- MIC [6, 14]: < 1 µg/mL
- MIC [7]: 12.5 to 150 µg/mL (≈ 34.5 to 414 µM)
- MIC [8]: 1 to 3.5 µg/mL (≈ 2.76 to 9.66 µM)

Structure (SMILES): CCc1c(-c2ccc(N3CC[C@@H](F)C3)cc2F)[nH]c(=O)c(C(=O)O)c1O [Cpd 293, 5-ethyl-6-{2-fluoro-4-[(3R)-3-fluoropyrrolidin-1-yl]phenyl}-4-hydroxy-2-oxo-1,2-dihydropyridine-3-carboxylic acid]
- MIC [1]: 3.5 to 12.5 µg/mL (≈ 9.61 to 34.3 µM)
- MIC [2]: 12.5 to 150 µg/mL (≈ 34.3 to 412 µM)
- MIC [3]: 3.5 to 12.5 µg/mL (≈ 9.61 to 34.3 µM)
- MIC [4]: 12.5 to 150 µg/mL (≈ 34.3 to 412 µM)
- MIC [6, 14]: < 1 µg/mL
- MIC [7]: 12.5 to 150 µg/mL (≈ 34.3 to 412 µM)
- MIC [8]: 12.5 to 150 µg/mL (≈ 34.3 to 412 µM)
